IC50 data for three molecules are collected here from US10722520B2, “Heterocyclic compounds and their use in preventing or treating bacterial infections” (MUTABILIS, priority 2016, dated 2020).

In assay [1] the target is AmpC (PAE) (Pseudomonas aeruginosa, UniProt P24735). To be noted: read-out: IC50 β-lactamase AmpC (PAE); class (C); nitrocefin 200 μM, 30-min pre-incubation, enzyme 0.4 nM.
The target of assay [2] is T1, AmpC (P99) (Enterobacter cloacae, UniProt P05364). Conditions: read-out: IC50 β-lactamase AmpC (P99); class (C); nitrocefin 200 μM, 30-min pre-incubation, enzyme 0.2 nM.
T1 sequence (P05364 21-381): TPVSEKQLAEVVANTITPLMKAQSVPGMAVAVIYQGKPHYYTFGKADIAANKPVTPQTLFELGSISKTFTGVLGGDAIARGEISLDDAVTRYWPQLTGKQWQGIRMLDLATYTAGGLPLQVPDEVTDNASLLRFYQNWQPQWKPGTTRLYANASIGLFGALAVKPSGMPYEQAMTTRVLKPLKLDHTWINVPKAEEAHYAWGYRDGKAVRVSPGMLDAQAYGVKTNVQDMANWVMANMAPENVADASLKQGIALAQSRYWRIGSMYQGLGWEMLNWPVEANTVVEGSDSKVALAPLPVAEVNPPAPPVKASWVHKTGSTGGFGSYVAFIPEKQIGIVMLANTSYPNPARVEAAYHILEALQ
Assay [3] has as its target OXA-15 (Pseudomonas aeruginosa, UniProt Q51574). To be noted: read-out: IC50 β-lactamase OXA-15; class (D); nitrocefin 200 μM, 30-min pre-incubation, enzyme 0.4 nM.
Assay [4] addresses T1, AmpC (P99). Put plainly: biochemical.

Like-named read-outs stand apart in the source and are kept apart here.

Chain of AmpC (PAE) (P24735 27-397): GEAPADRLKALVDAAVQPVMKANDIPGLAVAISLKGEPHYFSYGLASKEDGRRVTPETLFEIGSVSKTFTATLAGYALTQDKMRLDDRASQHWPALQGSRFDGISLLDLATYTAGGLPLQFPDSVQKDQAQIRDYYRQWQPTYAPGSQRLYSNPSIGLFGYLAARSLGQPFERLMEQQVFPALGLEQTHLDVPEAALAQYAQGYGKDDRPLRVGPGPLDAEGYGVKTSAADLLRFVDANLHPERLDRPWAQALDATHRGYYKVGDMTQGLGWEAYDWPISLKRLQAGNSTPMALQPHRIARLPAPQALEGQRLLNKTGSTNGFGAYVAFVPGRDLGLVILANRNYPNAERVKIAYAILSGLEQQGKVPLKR
Chain of OXA-15 (Q51574 22-275): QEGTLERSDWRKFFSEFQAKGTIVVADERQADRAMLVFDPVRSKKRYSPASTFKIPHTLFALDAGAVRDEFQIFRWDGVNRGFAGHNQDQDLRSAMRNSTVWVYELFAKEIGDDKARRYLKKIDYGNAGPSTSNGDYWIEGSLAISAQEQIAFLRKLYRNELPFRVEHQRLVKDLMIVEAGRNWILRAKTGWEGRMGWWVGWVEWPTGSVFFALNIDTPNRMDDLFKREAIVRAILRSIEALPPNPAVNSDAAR

As usually defined, the IC50 is the concentration that inhibits the measured activity by half. Regarding `O=C1N2CC(n3ccnn3)=CC(C2)N1OS(=O)(=O)[O-].[Na+]` (centres unmarked) [Example 2, sodium [7-oxo-3-(triazol-1-yl)-1,6-diazabicyclo[3.2.1]oct-3-en-6-yl]sulfate], the IC50 stood at 150 nM in assay [1], 10 nM in assay [2] and 40 nM in assay [3].
`O=C1N2CC(n3cncn3)=CC(C2)N1OS(=O)(=O)[O-].[Na+]` (centres unmarked) [Example 5, sodium [7-oxo-3-(1,2,4-triazol-1-yl)-1,6-diazabicyclo[3.2.1]oct-3-en-6-yl]sulfate]: in assay [4], the IC50 is 16 nM.
The molecule `O=C1N2CC(n3ccsc3=O)=CC(C2)N1OS(=O)(=O)[O-].[Na+]` (centres unmarked) [Example 1, Sodium [7-oxo-3-(2-oxo-thiazol-3-yl)-1,6-diaza-bicyclo[3.2.1]oct-3-en-6-yl]sulfate] showed an IC50 in assay [4] of 30 nM.
